Each structure is given as a SMILES string.

The conditions of series [1]: human gut metagenome, 24 h, 2 µM.
A short description of series [2]: The drug is tested on WLS-077 corresponding to human gut metagenome with ENA study accession number: PRJEB37062 and ENA sample accession number: ERS12561750 for biotransformation under anaerobic condition. The drug concentrations were measured over 9 timepoints collected between 0 and 24 hours of incubation by liquid-chromatography-coupled mass spectrometry (LC–MS). The conditions noted are these: 2 µM.

The conditions of series [3]: human gut metagenome, 24 h, 2 µM. The source holds these as a separate data set.
Series [4] is described as follows: The drug is tested on Z-026 corresponding to metagenome with ENA study accession number: PRJEB37062 and ENA sample accession number: ERS12561825 for biotransformation under anaerobic condition. The drug concentrations were measured over 9 timepoints collected between 0 and 24 hours of incubation by liquid-chromatography-coupled mass spectrometry (LC–MS). The note with it: 2 µM.

For series [5] the following is noted: human gut metagenome, 24 h, 2 µM. This is another data set of the same source.
Series [6] is described as follows: The drug is tested on WLS-240 corresponding to human gut metagenome with ENA study accession number: PRJEB37062 and ENA sample accession number: ERS12561773 for biotransformation under anaerobic condition. The drug concentrations were measured over 9 timepoints collected between 0 and 24 hours of incubation by liquid-chromatography-coupled mass spectrometry (LC–MS). The note with it: 2 µM.

The conditions of series [7]: human gut metagenome, 24 h, 2 µM. The source holds these as a separate data set.
Series [8] can be described thus: The drug is tested on Z-013 corresponding to rabbit gut metagenome with ENA study accession number: PRJEB37062 and ENA sample accession number: ERS12561813 for biotransformation under anaerobic condition. The drug concentrations were measured over 9 timepoints collected between 0 and 24 hours of incubation by liquid-chromatography-coupled mass spectrometry (LC–MS). The conditions noted are these: 2 µM.

The nature of series [9]: The drug is tested on Z-014 corresponding to rat gut metagenome with ENA study accession number: PRJEB37062 and ENA sample accession number: ERS12561814 for biotransformation under anaerobic condition. The drug concentrations were measured over 9 timepoints collected between 0 and 24 hours of incubation by liquid-chromatography-coupled mass spectrometry (LC–MS). The note with it: 2 µM.

For series [10] the following is noted: human gut metagenome, 24 h, 2 µM. The source holds these as a separate data set.
Series [11] in a line: The drug is tested on WLS-170 corresponding to human gut metagenome with ENA study accession number: PRJEB37062 and ENA sample accession number: ERS12561762 for biotransformation under anaerobic condition. The drug concentrations were measured over 9 timepoints collected between 0 and 24 hours of incubation by liquid-chromatography-coupled mass spectrometry (LC–MS). The conditions noted are these: 2 µM.

Series [12] in a line: The drug is tested on WLS-027 corresponding to human gut metagenome with ENA study accession number: PRJEB37062 and ENA sample accession number: ERS12561744 for biotransformation under anaerobic condition. The drug concentrations were measured over 9 timepoints collected between 0 and 24 hours of incubation by liquid-chromatography-coupled mass spectrometry (LC–MS). The note with it: 2 µM.

For series [13] the following is noted: human gut metagenome, 24 h, 2 µM. This is another data set of the same source.
The conditions of series [14]: human gut metagenome, 24 h, 2 µM. This is another data set of the same source.
Series [15] is described as follows: The drug is tested on Z-017 corresponding to mouse gut metagenome with ENA study accession number: PRJEB37062 and ENA sample accession number: ERS12561816 for biotransformation under anaerobic condition. The drug concentrations were measured over 9 timepoints collected between 0 and 24 hours of incubation by liquid-chromatography-coupled mass spectrometry (LC–MS). The conditions noted are these: 2 µM.

The conditions of series [16]: human gut metagenome, 24 h, 2 µM. This is another data set of the same source.
The conditions of series [17]: human gut metagenome, 24 h, 2 µM. The source holds these as a separate data set.
The conditions of series [18]: human gut metagenome, 24 h, 2 µM. This is another data set of the same source.
A short description of series [19]: The drug is tested on Z-006 corresponding to mouse gut metagenome with ENA study accession number: PRJEB37062 and ENA sample accession number: ERS12561806 for biotransformation under anaerobic condition. The drug concentrations were measured over 9 timepoints collected between 0 and 24 hours of incubation by liquid-chromatography-coupled mass spectrometry (LC–MS). The conditions noted are these: 2 µM.

Series [20] is described as follows: The drug is tested on Z-019 corresponding to rat gut metagenome with ENA study accession number: PRJEB37062 and ENA sample accession number: ERS12561818 for biotransformation under anaerobic condition. The drug concentrations were measured over 9 timepoints collected between 0 and 24 hours of incubation by liquid-chromatography-coupled mass spectrometry (LC–MS). The conditions noted are these: 2 µM.
Further: call rule not given here.

For `COC(=O)Nc1nc2ccc(C(=O)c3ccccc3)cc2[nH]1` [MEBENDAZOLE], the “Bacterial Biotransformation” value in series [1] was “Compound metabolized”; in series [2] it was “Compound metabolized”; in series [3] it was “Compound metabolized”; in [4], “Compound NOT metabolized”; in [5], “Compound NOT metabolized”; in [6], “Compound metabolized”. In addition, the “Bacterial Biotransformation” value was “Compound metabolized” in series [7]; “Compound metabolized” in series [8]; “Compound NOT metabolized” in series [9]; “Compound metabolized” in series [10]; “Compound metabolized” in series [11]; “Compound metabolized” in series [12]. Further, the “Bacterial Biotransformation” value in series [13] is listed as “Compound metabolized”; in [14] it was “Compound metabolized”; in series [15] it was “Compound NOT metabolized”; in series [16], “Compound metabolized”; in series [17], “Compound NOT metabolized”; in series [18], “Compound metabolized”. For the same compound, the “Bacterial Biotransformation” value in [19] is “Compound metabolized”; in [20], “Compound NOT metabolized”.

Consider `COc1ccccc1OCC(O)COC(N)=O` (stereo not given) [METHOCARBAMOL], for which the “Bacterial Biotransformation” value in series [1], in series [2], in [3], in series [4], in series [5] and in series [6] was “Compound NOT metabolized” throughout. Further, the “Bacterial Biotransformation” value in series [7], in series [8], in series [9], in series [10], in series [11] and in [12] was “Compound NOT metabolized” in each case. In addition, the “Bacterial Biotransformation” value in series [13], in series [14], in series [15], in series [16], in [17] and in series [18] was “Compound NOT metabolized” throughout. In addition, the “Bacterial Biotransformation” value in [19] and in series [20] was “Compound NOT metabolized” throughout.

Consider `CC[C@@H](CO)NC(=O)[C@@H]1C=C2c3cccc4c3c(cn4C)C[C@H]2N(C)C1.O=C(O)/C=C\C(=O)O` [METHYSERGIDE MALEATE], for which the “Bacterial Biotransformation” value is “Compound NOT metabolized” in series [1]; “Compound NOT metabolized” in series [2]; “Compound metabolized” in series [3]; “Compound NOT metabolized” in series [4]; “Compound NOT metabolized” in [5]; “Compound NOT metabolized” in [6]. Also, the “Bacterial Biotransformation” value is reported as “Compound NOT metabolized” in series [7]; “Compound NOT metabolized” in [8]; “Compound NOT metabolized” in series [9]; “Compound NOT metabolized” in series [10]; “Compound metabolized” in [11]; “Compound NOT metabolized” in series [12]. Besides, the “Bacterial Biotransformation” value in [13] is “Compound NOT metabolized”; in [14], “Compound metabolized”; in [15], “Compound NOT metabolized”; in series [16] it was “Compound metabolized”; in [17], “Compound NOT metabolized”; in [18], “Compound NOT metabolized”. The “Bacterial Biotransformation” value in series [19] and in series [20] was “Compound NOT metabolized” in each case.

Consider `CCN(CC)CCNC(=O)c1cc(Cl)c(N)cc1OC` [METOCLOPRAMIDE], for which the “Bacterial Biotransformation” value is “Compound NOT metabolized” in series [1]; “Compound NOT metabolized” in series [2]; “Compound NOT metabolized” in series [3]; “Compound NOT metabolized” in [4]; “Compound NOT metabolized” in series [5]; “Compound metabolized” in series [6]. Further, the “Bacterial Biotransformation” value in [7], in series [8], in series [9], in series [10], in [11] and in series [12] was “Compound NOT metabolized” throughout. Also, the “Bacterial Biotransformation” value is listed as “Compound NOT metabolized” in series [13]; “Compound NOT metabolized” in series [14]; “Compound NOT metabolized” in [15]; “Compound metabolized” in [16]; “Compound NOT metabolized” in series [17]; “Compound NOT metabolized” in series [18]. Also, the “Bacterial Biotransformation” value in series [19] and in [20] was “Compound NOT metabolized” in each case.

For the compound `Cc1ccccc1N1C(=O)c2cc(S(N)(=O)=O)c(Cl)cc2NC1C` (stereo not given) [METOLAZONE], the “Bacterial Biotransformation” value in [1] is “Compound NOT metabolized”; in [2], “Compound NOT metabolized”; in [3] it was “Compound NOT metabolized”; in series [4] it was “Compound metabolized”; in series [5], “Compound NOT metabolized”; in series [6], “Compound metabolized”. Moreover, the “Bacterial Biotransformation” value is “Compound NOT metabolized” in [7]; “Compound NOT metabolized” in series [8]; “Compound NOT metabolized” in [9]; “Compound metabolized” in [10]; “Compound NOT metabolized” in series [11]; “Compound NOT metabolized” in series [12]. In addition, the “Bacterial Biotransformation” value in [13] is given as “Compound NOT metabolized”; in [14], “Compound NOT metabolized”; in series [15], “Compound NOT metabolized”; in [16] it was “Compound metabolized”; in series [17] it was “Compound metabolized”; in series [18] it was “Compound metabolized”. The “Bacterial Biotransformation” value in [19] and in series [20] was “Compound NOT metabolized” each time.

Regarding `COCCc1ccc(OCC(O)CNC(C)C)cc1.COCCc1ccc(OCC(O)CNC(C)C)cc1.O=C(O)C(O)C(O)C(=O)O` (stereo not given) [METOPROLOL TARTRATE], the “Bacterial Biotransformation” value was “Compound metabolized” in series [1]; “Compound NOT metabolized” in series [2]; “Compound NOT metabolized” in [3]; “Compound NOT metabolized” in series [4]; “Compound NOT metabolized” in series [5]; “Compound metabolized” in [6]. Further, the “Bacterial Biotransformation” value is recorded as “Compound NOT metabolized” in series [7]; “Compound NOT metabolized” in series [8]; “Compound NOT metabolized” in series [9]; “Compound metabolized” in series [10]; “Compound metabolized” in series [11]; “Compound NOT metabolized” in [12]. Also, the “Bacterial Biotransformation” value in series [13] is given as “Compound metabolized”; in series [14], “Compound metabolized”; in series [15], “Compound NOT metabolized”; in series [16] it was “Compound NOT metabolized”; in series [17], “Compound metabolized”; in series [18], “Compound metabolized”. Moreover, the “Bacterial Biotransformation” value in [19] and in [20] was “Compound NOT metabolized” throughout.
